Laboratory results taken from ChEMBL document CHEMBL1154763, “Antitrypanosomal activity of 1,2-dihydroquinolin-6-ols and their ester derivatives” (J Med Chem, 2010).
The source made the active and inactive calls. No cut-off for these calls is given here.

Columns and labels:
[1] = Selectivity index, ratio of IC50 for rat L6 cells to IC50 for bloodstream Trypanosoma brucei rhodesiense STIB 900; type: toxicity, cell-based; conditions: read-out: Ratio IC50
L6 = assay: Cytotoxicity against rat L6 cells after 70 hrs by alamar blue assay; type: cell-based; conditions: L6, 70 h
[2] = tested on: Trypanosoma brucei brucei; assay: Induction of reactive oxygen species generation in Trypanosoma brucei brucei MITat1,2,variant 221 at 10 uM preincubated for 24 hrs by CM-H2DCFDA fluorescence assay
[3] = tested on: Trypanosoma brucei brucei; assay: Induction of reactive oxygen species generation in Trypanosoma brucei brucei MITat1,2,variant 221 at 0.1 uM preincubated for 24 hrs by CM-H2DCFDA fluorescence assay
[4] = tested on: Trypanosoma brucei rhodesiense; assay: Antitrypanosomal activity against bloodstream Trypanosoma brucei rhodesiense STIB 900 after 70 hrs by alamar blue assay; type: functional, organism-based; conditions: STIB 900, 70 h
[5] = tested on: Trypanosoma brucei brucei; assay: Induction of reactive oxygen species generation in Trypanosoma brucei brucei MITat1,2,variant 221 at 1 uM preincubated for 24 hrs by CM-H2DCFDA fluorescence assay
Mus musculus = assay: Toxicity in Trypanosoma brucei STIB795 infected in NMRI mouse African trypanosomiasis model assessed as overt signs of at 50 mg/kg, ip qd administered for 4 consecutive days from day 3 to 6 postinfection measured up to 30 days; conditions: in vivo, 720 h
[6] = tested on: Trypanosoma brucei brucei; assay: Antitrypanosomal activity against Trypanosoma brucei brucei STIB 795 infected in NMRI mouse African trypanosomiasis model assessed as parasite free mouse survival at 50 mg/kg, ip qd administered for 4 consecutive days from day 3 to 6 postinfection measured up to 30 days
[7] = tested on: Trypanosoma brucei brucei; assay: Antitrypanosomal activity against Trypanosoma brucei brucei STIB 795 infected in NMRI mouse African trypanosomiasis model assessed as parasite free mouse survival at 10 mg/kg, ip qd administered for 4 consecutive days from day 3 to 6 postinfection measured up to 30 days; conditions: STIB795
[8] = tested on: Trypanosoma brucei brucei; assay: Induction of reactive oxygen species generation in Trypanosoma brucei brucei MITat1,2,variant 221 preincubated for 24 hrs by CM-H2DCFDA fluorescence assay

| Compound | selectivity ratio [1] | IC50 (L6; read-out: IC50) | IC50 [4] | also measured |
| --- | --- | --- | --- | --- |
| CC1=CC(C)(C)N(Cc2ccccc2)c2ccccc21 | 2 | 110 µM | 57 µM | Activity [2]: inactive; Activity [3]: inactive; Activity [5]: inactive |
| CC1=CC(C)(C)N(Cc2cccc(C(F)(F)F)c2)c2ccc(OCc3cccc(C(F)(F)F)c3)cc21 | > 50 | > 180 µM | 3.6 µM | – |
| COc1cccc(COc2ccc3c(c2)C(C)=CC(C)(C)N3Cc2cccc(OC)c2)c1 | > 3 | > 210 µM | 63 µM | – |
| CC1=CC(C)(C)N(Cc2ccccc2)c2ccc(O)cc21 | 970 | 6.8 µM | 0.007 µM | – |
| CC1=CC(C)(C)N(Cc2ccccc2)c2ccc(OC(=O)c3ccccc3)cc21 | > 18000 | > 240 µM | 0.013 µM | – |
| COc1ccccc1COc1ccc2c(c1)C(C)=CC(C)(C)N2 | 9 | 48 µM | 5.3 µM | – |
| CC1=CC(C)(C)N(Cc2ccc(C)cc2)c2ccc(O)cc21 | 140 | 8.1 µM | 0.058 µM | – |
| COc1cc(CN2c3ccc(OC(C)=O)cc3C=CC2(C)C)cc(OC)c1 | 50 | 10 µM | 0.2 µM | – |
| COc1ccc(CN2c3ccc(OC(C)=O)cc3C(C)=CC2(C)C)cc1 | 310 | 15 µM | 0.048 µM | – |
| COc1cc(CN2c3ccc(OC(C)=O)cc3C(C)=CC2(C)C)cc(OC)c1 | 240 | 25 µM | 0.1 µM | – |
| CC1=CC(C)(C)N(Cc2ccccc2)c2ccc(OC(=O)C3CCCCC3)cc21 | > 8200 | > 230 µM | 0.028 µM | – |
| COc1ccc(COc2ccc3c(c2)C(C)=CC(C)(C)N3)cc1 | 15 | 77 µM | 5.2 µM | – |
| COc1cc(OC)cc(C(=O)Oc2ccc3ncccc3c2)c1 | 2 | 200 µM | 89 µM | – |
| CC1=CC(C)(C)Nc2ccc(OCc3ccc(C(F)(F)F)cc3)cc21 | 11 | 48 µM | 4.5 µM | – |
| COc1cc(CN2c3ccc(O)cc3C(C)=CC2(C)C)cc(OC)c1 | 83 | 11 µM | 0.14 µM | – |
| CC1=CC(C)(C)Nc2ccc(OC(=O)c3ccc4c(c3)OCO4)cc21 | 99 | 29 µM | 0.3 µM | – |
| CC1(C)C=Cc2cc(O)ccc2N1Cc1ccccc1 | 42 | 5.5 µM | 0.13 µM | – |
| CC1=CC(C)(C)N(Cc2ccccn2)c2ccc(O)cc21 | 17 | 18 µM | 1.1 µM | – |
| COc1cccc(CN2c3ccc(OC(C)=O)cc3C(C)=CC2(C)C)c1 | 91 | 29 µM | 0.32 µM | – |

| Compound | selectivity ratio [1] | IC50 (L6; read-out: IC50) | IC50 [4] | also measured |
| --- | --- | --- | --- | --- |
| COc1ccc(CN2c3ccc(O)cc3C(C)=CC2(C)C)cc1 | 37 | 6.2 µM | 0.17 µM | – |
| CC1=CC(C)(C)Nc2ccc(OC(=O)c3cccc(C(=O)Oc4ccc5c(c4)C(C)=CC(C)(C)N5)c3)cc21 | > 7800 | 63 µM | < 0.008 µM | – |
| CC1=CC(C)(C)N(Cc2ccncc2)c2ccc(O)cc21 | 39 | 13 µM | 0.34 µM | – |
| CC(=O)Oc1ccc2c(c1)C(C)=CC(C)(C)N2Cc1ccc(C(F)(F)F)cc1 | 39 | 14 µM | 0.36 µM | – |
| Nc1nc(N)nc(Nc2ccc([As]3SCC(CO)S3)cc2)n1 (stereo not drawn) [MELARSOPROL] | 1000 | 7.9 µM | 0.008 µM | – |
| CC(=O)Oc1ccc2c(c1)C(C)=CC(C)(C)N2Cc1ccc(Cl)cc1 | 120 | 22 µM | 0.18 µM | – |
| CC(=O)Oc1ccc2c(c1)C(C)=CC(C)(C)N2Cc1cccc(Cl)c1 | 740 | 29 µM | 0.039 µM | – |
| CC(=O)Oc1ccc2c(c1)C(C)=CC(C)(C)N2Cc1cccc(C#N)c1 | 170 | 31 µM | 0.18 µM | Activity (Mus musculus): Non-toxic; Survival ([6]; route intraperitoneal): 9.25 days |
| CC(=O)Oc1ccc2c(c1)C(C)=CC(C)(C)N2Cc1ccc(C(C)(C)C)cc1 | 13 | 9 µM | 0.67 µM | – |
| CC(=O)Oc1ccc2c(c1)N(Cc1ccccc1)C(C)(C)C=C2C | 16 | 71 µM | 4.4 µM | Activity [2]: inactive; Activity [3]: inactive; Activity [5]: inactive |
| CC1=CC(C)(C)Nc2ccc(OCc3cccc(C(F)(F)F)c3)cc21 | 5 | 45 µM | 8.8 µM | – |
| CC1=CC(C)(C)N(Cc2ccccc2)c2ccc(OC(=O)C(C)(C)C)cc21 | 6000 | 170 µM | 0.028 µM | – |
| CC(=O)Oc1ccc2c(c1)C(C)=CC(C)(C)N2C(C)=O | 29 | 160 µM | 5.3 µM | – |
| CC(=O)Oc1ccc2c(c1)C(C)=CC(C)(C)N2Cc1cccc(C)c1 | 82 | 28 µM | 0.34 µM | – |
| COc1cc(OC)cc(C(=O)Oc2ccc3c(c2)C(C)=CC(C)(C)N3Cc2ccc(Cl)cc2)c1 | > 3900 | > 190 µM | 0.048 µM | – |
| CC(=O)Oc1ccc2c(c1)C(C)=CC(C)(C)N2Cc1ccc(C)cc1 | 54 | 21 µM | 0.39 µM | – |
| CC1=CC(C)(C)Nc2ccc(OCCc3ccccc3)cc21 | 22 | 83 µM | 3.7 µM | – |
| CC1=CC(C)(C)N(Cc2ccc(Cl)cc2)c2ccc(O)cc21 | 130 | 7.9 µM | 0.061 µM | – |
| N=C(N)c1ccc(/N=N/Nc2ccc(C(=N)N)cc2)cc1 | – | – | – | Activity [7]: Active |

| Compound | selectivity ratio [1] | IC50 (L6; read-out: IC50) | IC50 [4] | also measured |
| --- | --- | --- | --- | --- |
| COc1cc(OC)cc(C(=O)Oc2ccc3c(c2)C(C)=CC(C)(C)N3)c1 | 300 | 16 µM | 0.054 µM | Survival [6]: inactive |
| CC(=O)Oc1ccc2c(c1)C(C)=CC(C)(C)N2Cc1cccc(C(F)(F)F)c1 | 660 | 27 µM | 0.041 µM | – |
| CC(=O)Oc1ccc2c(c1)C(C)=CC(C)(C)N2Cc1ccccc1 | 1700 | 24 µM | 0.014 µM | Activity (Mus musculus): Non-toxic; Survival ([6]; route intraperitoneal): >14 days; Activity [8]: Dose-dependent effect |
| CCCCCCCC(=O)Oc1ccc2c(c1)C(C)=CC(C)(C)N2Cc1ccccc1 | 13000 | 220 µM | 0.017 µM | – |
| O=C(Oc1ccc2ncccc2c1)c1ccc2c(c1)OCO2 | 0.5 | 40 µM | 80 µM | – |
| COc1cccc(COc2ccc3c(c2)C(C)=CC(C)(C)N3)c1 | 5 | 61 µM | 11 µM | – |
| COc1cc(OC)cc(C(=O)Oc2ccc3c(c2)C(C)=CC(C)(C)N3Cc2ccccc2)c1 | 1000 | 24 µM | 0.023 µM | – |
| CC1=CC(C)(C)Nc2ccc(O)cc21 | 23 | 18 µM | 0.78 µM | – |
| COc1cc([C@@H]2c3cc4c(cc3[C@H](O)[C@H]3COC(=O)[C@H]23)OCO4)cc(OC)c1OC [PODOFILOX] | – | – | – | IC50 (L6): 0.012 µM |
| CC(=O)Oc1ccc2c(c1)C(C)=CC(C)(C)N2Cc1ccc(Cl)c(Cl)c1 | 530 | 28 µM | 0.053 µM | – |
| COc1cc(OC)cc(C(=O)Oc2ccc3c(c2)C(C)=CC(C)(C)N3Cc2ccc(C)cc2)c1 | > 6000 | > 200 µM | 0.033 µM | – |
| CC(=O)Oc1ccc2c(c1)C(C)=CC(C)(C)N2Cc1ccc(C#N)cc1 | 110 | 29 µM | 0.26 µM | – |
| COc1cc(COc2ccc3c(c2)C(C)=CC(C)(C)N3)cc(OC)c1 | 5 | 68 µM | 13 µM | – |
| CC1=CC(C)(C)Nc2ccc(OCc3ccccc3)cc21 | 14 | 56 µM | 4.1 µM | – |
| CC1=CC(C)(C)N(Cc2ccc(C(F)(F)F)cc2)c2ccc(OCc3ccc(C(F)(F)F)cc3)cc21 | > 2 | > 180 µM | 86 µM | – |
| CC1=CC(C)(C)N(Cc2ccccc2)c2ccc(OC(=O)Cc3ccccc3)cc21 | 11000 | 160 µM | 0.015 µM | – |
| CC(=O)Oc1ccc2c(c1)C(C)=CC(C)(C)N2Cc1ccc(F)cc1 | 710 | 29 µM | 0.041 µM | Activity (Mus musculus): Non-toxic; Survival ([6]; route intraperitoneal): 8.75 days |
| CC(=O)Oc1ccc2c(c1)C(C)=CC(C)(C)N2C | 29 | 41 µM | 1.4 µM | – |
